In the supplement of paper PMC10627819:

Legend:
S. aureus Newman = experiment: Bliss interaction score (quartile over a dose matrix) (fitness difference); higher = more antagonism (negative = synergy)
Summary of the method: (§1)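 Fitness was defined as normalised growth: OD595 at the start of stationary phase divided by the plate's robust no-drug mean and capped at 1. Single-drug fitness was inferred from combination measurements. The Bliss score is observed fitness minus the product of the single-drug values, summarised by quartiles across technical, biological and donor/recipient replicates.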

S. pneumoniae D39V [1] = experiment: as above
Summary of the method: as §1

S. aureus DSM 20231 = experiment: as above
Summary of the method: as §1

B. subtilis 168 = experiment: as above
Summary of the method: as §1

S. pneumoniae D39V [2] = experiment: fitness (endpoint OD595 vs no drug) (fraction); higher = more growth
Summary of the method: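 In 384-well plates at 37 °C, cultures began at OD595 0.01 in 30 µl, with 55 µl used for S. pneumoniae. OD595 readings every 30 min for 14 h were corrected by the first reading. Fitness divides the stationary-phase transition optical density by the robust mean of no-drug control wells. The result is capped at 1.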
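Wherever Bliss interaction score (quartile over a dose matrix) is given: first quartile when negative (synergy) and third quartile when positive (antagonism).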
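Wherever fitness (endpoint OD595 vs no drug) is given: OD595 on entry to stationary phase over no-drug wells; at most 1.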

In the case of CC1(C)S[C@@H]2[C@H](NC(=O)[C@H](N)c3ccc(O)cc3)C(=O)N2[C@H]1C(=O)O [Amoxicillin] + C[C@H]1COc2c(N3CCN(C)CC3)c(F)cc3c(=O)c(C(=O)O)cn1c23 [Levofloxacin], the Bliss interaction score (S. aureus Newman) is reported as -0.0695, the Bliss interaction score (S. pneumoniae D39V [1]) is reported as 0.142 and the Bliss interaction score (S. aureus DSM 20231) is reported as 0.0396. It also gave a Bliss interaction score (B. subtilis 168) of 0.0559, a fitness (S. pneumoniae D39V [2]; first compound 0.0008 µg/mL, partner 0.1725 µg/mL) of 0.955 and a fitness (S. pneumoniae D39V [2]; first compound 0.0008 µg/mL, partner 0.2 µg/mL, one replicate) of 0.959. It also gave a fitness (S. pneumoniae D39V [2]; first compound 0.0008 µg/mL, partner 0.345 µg/mL) of 0.911, a fitness (S. pneumoniae D39V [2]; first compound 0.0008 µg/mL, partner 0.4 µg/mL, one replicate) of 0.881 and a fitness (S. pneumoniae D39V [2]; first compound 0.0008 µg/mL, partner 0.69 µg/mL) of 0.591. The fitness (S. pneumoniae D39V [2]; first compound 0.0008 µg/mL, partner 0.8 µg/mL, one replicate) was 0.718, the fitness (S. pneumoniae D39V [2]; first compound 0.0015 µg/mL, partner 0.1725 µg/mL) was 0.976 and the fitness (S. pneumoniae D39V [2]; first compound 0.0015 µg/mL, partner 0.2 µg/mL) was 0.951. The fitness (S. pneumoniae D39V [2]; first compound 0.0015 µg/mL, partner 0.345 µg/mL) was 0.906, the fitness (S. pneumoniae D39V [2]; first compound 0.0015 µg/mL, partner 0.4 µg/mL) was 0.868 and the fitness (S. pneumoniae D39V [2]; first compound 0.0015 µg/mL, partner 0.69 µg/mL) was 0.57. The fitness (S. pneumoniae D39V [2]; first compound 0.0015 µg/mL, partner 0.8 µg/mL) was 0.774, the fitness (S. pneumoniae D39V [2]; first compound 0.003 µg/mL, partner 0.1725 µg/mL) was 0.96 and the fitness (S. pneumoniae D39V [2]; first compound 0.003 µg/mL, partner 0.2 µg/mL) was 0.866. It also gave a fitness (S. pneumoniae D39V [2]; first compound 0.003 µg/mL, partner 0.345 µg/mL) of 0.89, a fitness (S. pneumoniae D39V [2]; first compound 0.003 µg/mL, partner 0.4 µg/mL) of 0.893 and a fitness (S. pneumoniae D39V [2]; first compound 0.003 µg/mL, partner 0.69 µg/mL) of 0.561. It also gave a fitness (S. pneumoniae D39V [2]; first compound 0.003 µg/mL, partner 0.8 µg/mL) of 0.775, a fitness (S. pneumoniae D39V [2]; first compound 0.006 µg/mL, partner 0.2 µg/mL, one replicate) of 0.5 and a fitness (S. pneumoniae D39V [2]; first compound 0.006 µg/mL, partner 0.4 µg/mL, one replicate) of 0.509. The fitness (S. pneumoniae D39V [2]; first compound 0.006 µg/mL, partner 0.8 µg/mL, one replicate) was 0.399.
CC1(C)S[C@@H]2[C@H](NC(=O)[C@H](N)c3ccc(O)cc3)C(=O)N2[C@H]1C(=O)O [Amoxicillin] + C[C@@H](O)[C@H]1C(=O)N2C(C(=O)O)=C(SCCNC=N)C[C@H]12 [Imipenem] showed a Bliss interaction score (S. aureus Newman) of 0.0343, a Bliss interaction score (S. pneumoniae D39V [1]) of -0.058 and a Bliss interaction score (S. aureus DSM 20231) of -0.0413. For the same compound, the Bliss interaction score (B. subtilis 168) was 0.189, the fitness (S. pneumoniae D39V [2]; first compound 0.0008 µg/mL, partner 0.005 µg/mL, one replicate) was 0.971 and the fitness (S. pneumoniae D39V [2]; first compound 0.0008 µg/mL, partner 0.0065 µg/mL) was 0.934. The fitness (S. pneumoniae D39V [2]; first compound 0.0008 µg/mL, partner 0.01 µg/mL, one replicate) was 0.931, the fitness (S. pneumoniae D39V [2]; first compound 0.0008 µg/mL, partner 0.013 µg/mL) was 0.908 and the fitness (S. pneumoniae D39V [2]; first compound 0.0008 µg/mL, partner 0.02 µg/mL, one replicate) was 0.907. For the same compound, the fitness (S. pneumoniae D39V [2]; first compound 0.0008 µg/mL, partner 0.026 µg/mL) was 0.875, the fitness (S. pneumoniae D39V [2]; first compound 0.0015 µg/mL, partner 0.005 µg/mL) was 0.928 and the fitness (S. pneumoniae D39V [2]; first compound 0.0015 µg/mL, partner 0.0065 µg/mL) was 0.927. For the same compound, the fitness (S. pneumoniae D39V [2]; first compound 0.0015 µg/mL, partner 0.01 µg/mL) was 0.934, the fitness (S. pneumoniae D39V [2]; first compound 0.0015 µg/mL, partner 0.013 µg/mL) was 0.919 and the fitness (S. pneumoniae D39V [2]; first compound 0.0015 µg/mL, partner 0.02 µg/mL) was 0.907. It also gave a fitness (S. pneumoniae D39V [2]; first compound 0.0015 µg/mL, partner 0.026 µg/mL) of 0.859, a fitness (S. pneumoniae D39V [2]; first compound 0.003 µg/mL, partner 0.005 µg/mL) of 0.888 and a fitness (S. pneumoniae D39V [2]; first compound 0.003 µg/mL, partner 0.0065 µg/mL) of 0.842. For the same compound, the fitness (S. pneumoniae D39V [2]; first compound 0.003 µg/mL, partner 0.01 µg/mL) was 0.882, the fitness (S. pneumoniae D39V [2]; first compound 0.003 µg/mL, partner 0.013 µg/mL) was 0.869 and the fitness (S. pneumoniae D39V [2]; first compound 0.003 µg/mL, partner 0.02 µg/mL) was 0.866. For the same compound, the fitness (S. pneumoniae D39V [2]; first compound 0.003 µg/mL, partner 0.026 µg/mL) was 0.796, the fitness (S. pneumoniae D39V [2]; first compound 0.006 µg/mL, partner 0.005 µg/mL, one replicate) was 0.431 and the fitness (S. pneumoniae D39V [2]; first compound 0.006 µg/mL, partner 0.01 µg/mL, one replicate) was 0.412. The fitness (S. pneumoniae D39V [2]; first compound 0.006 µg/mL, partner 0.02 µg/mL, one replicate) was 0.373.
With CC1(C)S[C@@H]2[C@H](NC(=O)[C@H](N)c3ccc(O)cc3)C(=O)N2[C@H]1C(=O)O [Amoxicillin] + CCC(C)C1C(=O)NC(=C)C(=O)NC(C(=O)NC(CSCC(C(=O)N1)NC(=O)/C(=C/C)/NC(=O)C(C(C)CC)N)C(=O)NC2C(SCC(NC(=O)CNC(=O)C3CCCN3C2=O)C(=O)NC(CCCCN)C(=O)NC4C(SCC(NC(=O)CNC(=O)C(NC(=O)C(NC(=O)C(NC(=O)CNC4=O)C)CC(C)C)CCSC)C(=O)NC(CC(=O)N)C(=O)NC(CCSC)C(=O)NC(CCCCN)C(=O)NC5C(SCC6C(=O)NC(C(=O)NC(CSC(C(C(=O)N6)NC(=O)C(NC5=O)C)C)C(=O)NC(CO)C(=O)NC(C(C)CC)C(=O)NC(CC7=CN=CN7)C(=O)NC(C(C)C)C(=O)NC(=C)C(=O)NC(CCCCN)C(=O)O)CC8=CN=CN8)C)C)C)CC(C)C [Nisin] the Bliss interaction score (S. aureus Newman; main component drawn) was -0.0715, the Bliss interaction score (S. pneumoniae D39V [1]; main component drawn) was 0.09 and the Bliss interaction score (S. aureus DSM 20231; main component drawn) was -0.111. For the same compound, the Bliss interaction score (B. subtilis 168; main component drawn) was -0.105, the fitness (S. pneumoniae D39V [2]; first compound 0.0008 µg/mL, partner 0.4275 µg/mL, main component drawn) was at least 1 and the fitness (S. pneumoniae D39V [2]; first compound 0.0008 µg/mL, partner 0.855 µg/mL, main component drawn) was 0.534. It also gave a fitness (S. pneumoniae D39V [2]; first compound 0.0008 µg/mL, partner 1.6 µg/mL, one replicate, main component drawn) of 0.0458, a fitness (S. pneumoniae D39V [2]; first compound 0.0008 µg/mL, partner 1.71 µg/mL, main component drawn) of 0.106 and a fitness (S. pneumoniae D39V [2]; first compound 0.0008 µg/mL, partner 3.2 µg/mL, one replicate, main component drawn) of 0.094. For the same compound, the fitness (S. pneumoniae D39V [2]; first compound 0.0008 µg/mL, partner 6.4 µg/mL, one replicate, main component drawn) was 0.0228, the fitness (S. pneumoniae D39V [2]; first compound 0.0015 µg/mL, partner 0.4275 µg/mL, main component drawn) was 0.981 and the fitness (S. pneumoniae D39V [2]; first compound 0.0015 µg/mL, partner 1.6 µg/mL, main component drawn) was 0.135. The fitness (S. pneumoniae D39V [2]; first compound 0.0015 µg/mL, partner 1.71 µg/mL, main component drawn) was 0.119, the fitness (S. pneumoniae D39V [2]; first compound 0.0015 µg/mL, partner 3.2 µg/mL, main component drawn) was 0.0433 and the fitness (S. pneumoniae D39V [2]; first compound 0.0015 µg/mL, partner 6.4 µg/mL, main component drawn) was 0.0441. The fitness (S. pneumoniae D39V [2]; first compound 0.003 µg/mL, partner 0.4275 µg/mL, main component drawn) was 0.953, the fitness (S. pneumoniae D39V [2]; first compound 0.003 µg/mL, partner 0.855 µg/mL, main component drawn) was 0.705 and the fitness (S. pneumoniae D39V [2]; first compound 0.003 µg/mL, partner 1.6 µg/mL, main component drawn) was 0.38. For the same compound, the fitness (S. pneumoniae D39V [2]; first compound 0.003 µg/mL, partner 1.71 µg/mL, main component drawn) was 0.13, the fitness (S. pneumoniae D39V [2]; first compound 0.003 µg/mL, partner 3.2 µg/mL, main component drawn) was 0.0777 and the fitness (S. pneumoniae D39V [2]; first compound 0.003 µg/mL, partner 6.4 µg/mL, main component drawn) was 0.0249. It also gave a fitness (S. pneumoniae D39V [2]; first compound 0.006 µg/mL, partner 1.6 µg/mL, one replicate, main component drawn) of 0.289, a fitness (S. pneumoniae D39V [2]; first compound 0.006 µg/mL, partner 3.2 µg/mL, one replicate, main component drawn) of 0.0544 and a fitness (S. pneumoniae D39V [2]; first compound 0.006 µg/mL, partner 6.4 µg/mL, one replicate, main component drawn) of 0.0443.
Work on CC1(C)S[C@@H]2[C@H](NC(=O)[C@H](N)c3ccc(O)cc3)C(=O)N2[C@H]1C(=O)O [Amoxicillin] + Clc1ccc(COC(Cn2ccnc2)c2ccc(Cl)cc2Cl)c(Cl)c1 [Miconazole] yielded a Bliss interaction score (S. aureus Newman) of 0.0536, a Bliss interaction score (S. pneumoniae D39V [1]) of -0.0912 and a Bliss interaction score (S. aureus DSM 20231) of 0.0878. The Bliss interaction score (B. subtilis 168) was 0.0957, the fitness (S. pneumoniae D39V [2]; first compound 0.0008 µg/mL, partner 1.073 µg/mL) was at least 1 and the fitness (S. pneumoniae D39V [2]; first compound 0.0008 µg/mL, partner 1.25 µg/mL, one replicate) was 0.89. For the same compound, the fitness (S. pneumoniae D39V [2]; first compound 0.0008 µg/mL, partner 2.145 µg/mL) was 0.881, the fitness (S. pneumoniae D39V [2]; first compound 0.0008 µg/mL, partner 2.5 µg/mL, one replicate) was 0.799 and the fitness (S. pneumoniae D39V [2]; first compound 0.0008 µg/mL, partner 4.29 µg/mL) was 0.882. For the same compound, the fitness (S. pneumoniae D39V [2]; first compound 0.0008 µg/mL, partner 5 µg/mL, one replicate) was 0.987, the fitness (S. pneumoniae D39V [2]; first compound 0.0015 µg/mL, partner 1.073 µg/mL) was at least 1 and the fitness (S. pneumoniae D39V [2]; first compound 0.0015 µg/mL, partner 1.25 µg/mL) was 0.781. It also gave a fitness (S. pneumoniae D39V [2]; first compound 0.0015 µg/mL, partner 2.145 µg/mL) of 0.948, a fitness (S. pneumoniae D39V [2]; first compound 0.0015 µg/mL, partner 2.5 µg/mL) of 0.831 and a fitness (S. pneumoniae D39V [2]; first compound 0.0015 µg/mL, partner 4.29 µg/mL) of 0.848. For the same compound, the fitness (S. pneumoniae D39V [2]; first compound 0.0015 µg/mL, partner 5 µg/mL) was 0.906, the fitness (S. pneumoniae D39V [2]; first compound 0.003 µg/mL, partner 1.073 µg/mL) was 0.994 and the fitness (S. pneumoniae D39V [2]; first compound 0.003 µg/mL, partner 1.25 µg/mL) was 0.736. It also gave a fitness (S. pneumoniae D39V [2]; first compound 0.003 µg/mL, partner 2.145 µg/mL) of 0.778, a fitness (S. pneumoniae D39V [2]; first compound 0.003 µg/mL, partner 2.5 µg/mL) of 0.814 and a fitness (S. pneumoniae D39V [2]; first compound 0.003 µg/mL, partner 4.29 µg/mL) of 0.739. For the same compound, the fitness (S. pneumoniae D39V [2]; first compound 0.003 µg/mL, partner 5 µg/mL) was 0.849, the fitness (S. pneumoniae D39V [2]; first compound 0.006 µg/mL, partner 1.25 µg/mL, one replicate) was 0.355 and the fitness (S. pneumoniae D39V [2]; first compound 0.006 µg/mL, partner 2.5 µg/mL, one replicate) was 0.264. It also gave a fitness (S. pneumoniae D39V [2]; first compound 0.006 µg/mL, partner 5 µg/mL, one replicate) of 0.395.
